Measured values as given in patent US20230118435A1, “COMPOSITION COMPRISING AN AVENANTHRAMIDE WITH IMPROVED SKIN PENETRATION” (priority 2020, published 2023).

Test: Skin PAMPA (Parallel Artificial Membrane Permeability Assay) permeation from a cosmetic formulation
Type: in vitro ADME
Conditions: for Mean amount per ml acceptor liquid: 0.05% in formulation, no penetration enhancer; for Modulation (%) of penetration / increase of permeation / Modulation (%) of penetration: 3% 1,2-pentanediol (Hydrolite-5); for Penetration behaviour compared with DhAvn D: absence of a penetration enhancer, FIG. 1
Description: The permeation of Avn A from a cosmetic formulation across a stratum corneum-mimicking artificial membrane was evaluated using the Skin PAMPA™ (Parallel Artificial Membrane Permeability Assay) model.
The primary penetration barrier of the skin, the stratum corneum (SC), consists of corneocytes embedded in extracellular lipids. The lipid mixture of the Skin PAMPA™ membrane consists of similar quantities of certramides (synthetic ceramide analogues), stearic acid and cholesterol as the SC. The Skin PAMPA™ sandwich consists of two 96-well plates, wherein one plate is formed so as to sit precisely under the plate that contains a porous lipid-impregnated filter. The wells of the bottom plate were filled with formulation, and the wells of the top plate were filled with acceptor solution. The plates were then stacked and incubated. The Skin PAMPA™ model has been used to evaluate semi-solid formulations and found to correlate well with ex vivo permeation studies.
(§1) Heat Phase A and B separately to 70° C.; disperse Phase C in B; add Phase BC to Phase A and emulsify using an ULTRA TURRAX® stirrer (2 minutes); allow to cool by using a vane stirrer; add Phase D for neutralising. The formulation was prepared in bulk. The active substances were pre-dissolved in the corresponding additives and were added to the formulation (15 minutes stirring with a vane stirrer).
180 ml of buffer was mixed with 20 ml ethanol (buffer: 20 mmol/l citric acid, pH 5.5); 0.84 g of anhydrous citric acid was dissolved in approximately 180 g of water; the pH was adjusted to 5.5 using a 30% sodium hydroxide solution; following pH adjustment, the solution was filled up with water to 200 g.
After 240 minutes, approximately 180 μl of each Skin PAMPA™ sample was transferred into an HPLC micro-vial.
Equipment: an Agilent HP 1100 connected to a Waters Empower 3 SR3
Column: a Waters XBridge® C18, 3.5 μm, 3.0×50 mm
Column temperature: 30° C. Mobile phase A: water+0.1% formic acid Mobile phase B: methanol Flow: 1.02 ml/min Injection volume: 25 μl
The permeation of Avn L from a cosmetic formulation across a stratum corneum-mimicking artificial membrane was evaluated as described above using the Skin PAMPA™ (Parallel Artificial Membrane Permeability Assay) model.
The permeation of Avn B from a cosmetic formulation across a stratum corneum-mimicking artificial membrane was evaluated as described above using the Skin PAMPA™ (Parallel Artificial Membrane Permeability Assay) model.
Unlike Examples 1 and 2, acceptor solution samples for HPLC analysis of each Skin PAMPA™ sample were this time taken after just 120 minutes.
(§2) The skin permeation of Avn A, Avn B, Avn C and Avn L in comparison to dihydroavenanthramide D (DhAvn D) from a cosmetic formulation across a stratum corneum-mimicking artificial membrane was evaluated as described above using the Skin PAMPA™ (Parallel Artificial Membrane Permeability Assay) model.
as §1, with “glycerine or water or mixtures thereof” for “the corresponding additives”
After 60, 120 and 240 minutes, approximately 180 μl of each Skin PAMPA™ sample was transferred into an HPLC micro-vial and analysed by HPLC.
as §2, with “The” for “The skin”, “of” for “of Avn A, Avn B, Avn C and”, “formulation in the presence of 3% 1,2-pentanediol” for “formulation”

In the case of O=C(/C=C/C=C/c1ccc(O)cc1)Nc1ccc(O)cc1C(=O)O [Avn L], the “Mean amount per ml acceptor liquid” value (0 min) is reported as 0 μg per ml, the “Mean amount per ml acceptor liquid” value (60 min) is reported as 0 μg per ml and the “Mean amount per ml acceptor liquid” value (120 min) is reported as 0.000 μg per ml. For the same molecule, the “Mean amount per ml acceptor liquid” value (240 min) was 0.030 μg per ml, the Increase of permeation (1% Hydrolite-6 (1,2-hexanediol), 240 min) was 160% and the “Modulation (%) of penetration / increase of permeation” value (240 min) was 125%. The “Penetration behaviour compared with DhAvn D” value was “weaker penetration behaviour than dehydroavenanthramide D (DhAvn D)”.
With COc1cc(C=CC(=O)Nc2ccc(O)cc2C(=O)O)ccc1O [Avn B, N-(4′-hydroxy-3′-methoxycinnamoyl)-5-hydroxyanthranilic acid] the “Mean amount per ml acceptor liquid” value (0 min) was 0 μg per ml, the “Mean amount per ml acceptor liquid” value (60 min) was 0.038 μg per ml and the “Mean amount per ml acceptor liquid” value (120 min) was 0.063 μg per ml. The “Mean amount per ml acceptor liquid” value (240 min) was 0.154 μg per ml, the Increase of permeation (1% Hydrolite-6 (1,2-hexanediol), Example 3, samples taken after 120 minutes) was 62% and the Increase of permeation (1% SymDiol 68 (1:1 1,2-hexanediol and 1,2-octanediol), Example 3, samples taken after 120 minutes) was 87%. For the same molecule, the Increase of permeation (2% Hydrolite-6 (1,2-hexanediol), Example 3, samples taken after 120 minutes) was 76% and the “Penetration behaviour compared with DhAvn D” value was “weaker penetration behaviour than dehydroavenanthramide D (DhAvn D)”.
For O=C(C=Cc1ccc(O)cc1)Nc1ccc(O)cc1C(=O)O [Avn A, N-(4′-hydroxycinnamoyl)-5-hydroxyanthranilic acid], the “Mean amount per ml acceptor liquid” value (0 min) was 0 μg per ml, the “Mean amount per ml acceptor liquid” value (60 min) was 0.069 μg per ml and the “Mean amount per ml acceptor liquid” value (120 min) was 0.188 μg per ml. For the same molecule, the “Mean amount per ml acceptor liquid” value (240 min) was 0.319 μg per ml, the Increase of permeation (2% Hydrolite-6 (1,2-hexanediol), 240 min) was 46% and the “Modulation (%) of penetration / increase of permeation” value (240 min) was 19%. The Increase of permeation (5% Hydrolite-5 (1,2-pentanediol), 240 min) was 59% and the “Penetration behaviour compared with DhAvn D” value was “weaker penetration behaviour than dehydroavenanthramide D (DhAvn D)”.
With O=C(CCc1ccc(O)cc1)Nc1ccccc1C(=O)O [Dihydroavenanthramide D, 2-(3-(4-hydroxyphenyl-)propanoyl-)amidobenzoic acid, reference compound] the “Mean amount per ml acceptor liquid” value (0 min) was 0.000 μg per ml, the “Mean amount per ml acceptor liquid” value (60 min) was 0.225 μg per ml and the “Mean amount per ml acceptor liquid” value (120 min) was 0.288 μg per ml. For the same molecule, the “Mean amount per ml acceptor liquid” value (240 min) was 0.750 μg per ml, the “Modulation (%) of penetration” value (60 min) was −2% and the “Modulation (%) of penetration” value (120 min) was 58%. The “Modulation (%) of penetration / increase of permeation” value (240 min) was 57%.
With O=C(C=Cc1ccc(O)c(O)c1)Nc1ccc(O)cc1C(=O)O [Avn C, N-(3′-4′-dihydroxycinnamoyl)-5-hydroxyanthranilic acid] the “Mean amount per ml acceptor liquid” value (0 min) was 0 μg per ml, the “Mean amount per ml acceptor liquid” value (60 min) was 0.321 μg per ml and the “Mean amount per ml acceptor liquid” value (120 min) was 0.532 μg per ml. The “Mean amount per ml acceptor liquid” value (240 min) was 1.098 μg per ml and the “Penetration behaviour compared with DhAvn D” value was “penetrates better than dehydroavenanthramide D (DhAvn D)”.
